How the values were obtained:
[1] = biological target: c-Met (Homo sapiens, UniProt P08581); assay: Z'-LYTE cell-free kinase assay, positive control; assay type: biochemical
[2] = biological target: c-Met (M1250T) (Homo sapiens, UniProt P08581, M1250T); assay: Z'-LYTE cell-free kinase assay; assay type: biochemical
Chain of c-Met (M1250T) (P08581 956-1390 M1250T limits assumed): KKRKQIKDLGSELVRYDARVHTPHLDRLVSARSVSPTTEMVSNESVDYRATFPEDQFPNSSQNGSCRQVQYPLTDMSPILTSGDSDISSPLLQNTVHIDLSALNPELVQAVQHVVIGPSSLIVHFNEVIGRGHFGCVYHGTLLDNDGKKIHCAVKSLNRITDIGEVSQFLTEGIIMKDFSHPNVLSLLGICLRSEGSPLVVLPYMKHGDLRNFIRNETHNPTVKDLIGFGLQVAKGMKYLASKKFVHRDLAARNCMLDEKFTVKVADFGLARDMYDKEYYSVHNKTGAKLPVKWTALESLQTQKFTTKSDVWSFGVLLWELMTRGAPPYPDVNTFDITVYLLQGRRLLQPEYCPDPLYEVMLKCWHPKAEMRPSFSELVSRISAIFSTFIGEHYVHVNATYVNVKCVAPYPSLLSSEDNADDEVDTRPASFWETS

Chain of c-Met (P08581 25-307): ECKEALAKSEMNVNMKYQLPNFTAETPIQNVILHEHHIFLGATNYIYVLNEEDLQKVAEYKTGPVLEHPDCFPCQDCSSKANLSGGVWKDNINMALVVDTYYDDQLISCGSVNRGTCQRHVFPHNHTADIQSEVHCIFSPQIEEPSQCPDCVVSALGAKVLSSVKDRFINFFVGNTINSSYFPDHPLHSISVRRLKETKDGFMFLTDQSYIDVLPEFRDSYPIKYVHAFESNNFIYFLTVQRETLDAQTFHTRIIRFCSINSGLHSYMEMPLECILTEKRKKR
Chain of c-Met (P08581 308-1390): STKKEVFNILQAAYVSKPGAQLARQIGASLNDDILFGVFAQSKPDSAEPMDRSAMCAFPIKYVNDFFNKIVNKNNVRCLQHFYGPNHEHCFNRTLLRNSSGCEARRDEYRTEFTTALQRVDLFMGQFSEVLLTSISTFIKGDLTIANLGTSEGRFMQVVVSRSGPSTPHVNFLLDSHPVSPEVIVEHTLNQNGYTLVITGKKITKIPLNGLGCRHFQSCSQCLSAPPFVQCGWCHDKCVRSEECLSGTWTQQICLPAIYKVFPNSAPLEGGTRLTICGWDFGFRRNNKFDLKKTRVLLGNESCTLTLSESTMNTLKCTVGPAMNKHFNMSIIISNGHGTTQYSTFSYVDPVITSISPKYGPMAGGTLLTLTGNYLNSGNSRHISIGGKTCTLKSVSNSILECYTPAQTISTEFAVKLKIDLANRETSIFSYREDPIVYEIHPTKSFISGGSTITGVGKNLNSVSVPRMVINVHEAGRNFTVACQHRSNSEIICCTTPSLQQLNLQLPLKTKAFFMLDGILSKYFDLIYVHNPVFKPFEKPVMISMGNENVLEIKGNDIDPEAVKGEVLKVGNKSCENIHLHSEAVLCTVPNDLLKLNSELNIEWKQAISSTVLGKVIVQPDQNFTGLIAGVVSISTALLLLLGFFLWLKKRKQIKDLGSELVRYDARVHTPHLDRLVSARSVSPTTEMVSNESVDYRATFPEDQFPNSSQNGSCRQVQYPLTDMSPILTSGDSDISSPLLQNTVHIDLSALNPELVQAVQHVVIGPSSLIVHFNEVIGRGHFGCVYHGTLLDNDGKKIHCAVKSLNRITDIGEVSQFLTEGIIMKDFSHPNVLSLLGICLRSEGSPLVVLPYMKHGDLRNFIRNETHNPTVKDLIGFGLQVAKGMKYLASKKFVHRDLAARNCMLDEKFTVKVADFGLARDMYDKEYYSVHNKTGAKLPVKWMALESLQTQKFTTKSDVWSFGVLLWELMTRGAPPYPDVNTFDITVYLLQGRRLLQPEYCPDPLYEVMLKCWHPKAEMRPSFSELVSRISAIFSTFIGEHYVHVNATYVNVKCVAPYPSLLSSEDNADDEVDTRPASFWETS

Row | Structure (SMILES) | Z'-LYTE cell-free kinase assay, positive control [1] | IC50 [2] [µM]
1 | C/C=C(/C=O)[C@@H](CC=O)CC(=O)OCCc1ccc(O)cc1 [(–)-oleocanthal] | (–)-oleocanthal was utilized as a positive control in Z'-LYTE cell free assay as a documented c-Met inhibitory phenolic | –
2 | C[C@@H]1O[C@@H](OC[C@H]2O[C@@H](Oc3c(-c4ccc(O)c(O)c4)oc4cc(O)cc(O)c4c3=O)[C@H](O)[C@@H](O)[C@@H]2O)[C@H](O)[C@H](O)[C@H]1O [compound 6, quercetin 3-O-[α-L-^1C4-rhamnopyranosyl 1'”→6” β-D-^4C1-glucopyranoside]] | – | 8.5
